Experiments:
leucocytes in BALF = experiment: Amount of leucocytes in bronchoalveolar lavage fluid (BALF) on an asthma modeled mouse; assay type: in vivo, C57BL/6 mouse; conditions: 10 mg/kg nasally, BALF 18 hours after ovalbumin challenge
Method: (§1) C57BL/6 mouse was immunized by dermally administering denatured ovalbumin by heating (40 mg). Fourteen days later after the first immunization, ovalbumin (100 μg) was nasally busted. Twenty one days later after the first immunization, the solution (1 ml/kg) prepared by suspending the test compound (10 mg/kg) in physiological saline was nasally administered (10 μl/10 g/body weight). After 2 hours ovalbumin (100 μg) was nasally challenged. After 18 hours, bronchoalveolar lavege fluid (BALF) was collected, and the total number of leucocytes in BALF and fractioned leukocyte in the cytospin sample were measured. By ELISA method, IL-4 and IL-5 in the supernatant were measured. The number of leucocytes (inhibition %) was shown in Table 5 and the production inhibition activity of IL-4 and IL-5 (inhibition % to control) was shown in Table 6.

IL-5 = IL-5 in BALF supernatant on an asthma modeled mouse (ELISA); assay type: in vivo, C57BL/6 mouse; conditions: 10 mg/kg nasally
Method: as §1

IL-4 = IL-4 in BALF supernatant on an asthma modeled mouse (ELISA); assay type: in vivo, C57BL/6 mouse; conditions: 10 mg/kg nasally
Method: as §1

cells of mouse spleen = experiment: cells; assay type: cell-based, C3H/HeJ mouse; conditions: Mus musculus, 24 h, read-out: Minimum effective concentration (interferon inducing activity)
[1] = Metabolic stability on liver S9 of rat; conditions: rat liver S9, test compound 1 μM, 37° C.
cells of rat spleen = experiment: cells; assay type: cell-based, SD rat; conditions: 24 h, read-out: Minimum effective concentration (interferon inducing activity)
plasma esterase = conditions: rat plasma, test compound 10 μM, 37° C., 15 minutes
Method: The compound of the present invention is added to the serum solution, and the mixture is incubated at 37±0.5° C. for 5 minutes to 2 hours. By quantitatively analyzing at the definite interval the amount of the compound of the present invention remaining in the serum solution with HPLC (high performance liquid chromatography), etc., the constant of quenching velocity calculated and the half life is calculated.
The serum herein means the supernatant fraction obtained by excluding hemocytes and blood coagulation factor from blood by centrifugation, etc. The serum diluted with buffer, etc. can be used.
The metabolic stability of the test compound was presented by the residual amount (%) per the concentration of pre-metabolization.

| SMILES | Acidophile (inhibition %) (leucocytes in BALF) [%] | Netrophile (inhibition %) (leucocytes in BALF) [%] | Number of total leukocyte (inhibition %) (leucocytes in BALF) [%] | IL-5 production inhibition activity (inhibition % to control) (IL-5) [%] | IL-4 production inhibition activity (inhibition % to control) (IL-4) [%] | minimal effective concentration (cells of mouse spleen) [µM] | Residual rate [1] [%] | minimal effective concentration (cells of rat spleen) [µM] | Residual rate (plasma esterase) [%] |
| --- | --- | --- | --- | --- | --- | --- | --- | --- | --- |
| CCC(=O)OCC(=O)[C@@]1(OC(=O)CC)[C@@H](C)C[C@H]2[C@@H]3CCC4=CC(=O)C=C[C@]4(C)[C@@]3(Cl)[C@@H](O)C[C@@]21C [Beclometasone dipropionate] | 89 | 90 | 92 | 100 | 97 | – | – | – | – |
| CCCCOc1nc(N)c2nc(O)n(Cc3ccc(C(=O)OC)o3)c2n1 [Example 15, 2-Butoxy-8-hydroxy-9-(5-methoxycarbonylfurfuryl)adenine] | 101 | −92 | 84 | 75 | 80 | 0.003 | 11 | 0.001 | 0 |
